From the supplement of paper PMC10307832

Key:
Experiment in all cases: relative viability (nuclei count vs DMSO), 5 days (fraction); higher = more cells survive
CAP-232 = compound: C[C@H]([C@@H](C(=O)N)NC(=O)[C@@H]1CSSC[C@@H](C(=O)N[C@H](C(=O)N[C@@H](C(=O)N[C@H](C(=O)N1)CCCCN)CC2=CNC3=CC=CC=C32)CC4=CC=C(C=C4)O)NC(=O)[C@@H](CC5=CC=CC=C5)N)O [CAP-232]
Method in brief: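 Cells of lung cancer lines were placed in 1536-well plates and kept overnight at 37 °C. Pinning then delivered five library-drug doses (not always all listed), spaced by √10, onto plates anchored with vehicle, and the cells were left 5 days without changing medium. One step fixed, permeabilised and stained them with Hoechst, and MetaXpress counted nuclei in 4× images. Viability, as a median over plates, is treated-well nuclei divided by vehicle-well nuclei, with acceptance only at control CV below 25% and at least one doubling.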

CAP-232 + Navitoclax = compound: C[C@H]([C@@H](C(=O)N)NC(=O)[C@@H]1CSSC[C@@H](C(=O)N[C@H](C(=O)N[C@@H](C(=O)N[C@H](C(=O)N1)CCCCN)CC2=CNC3=CC=CC=C32)CC4=CC=C(C=C4)O)NC(=O)[C@@H](CC5=CC=CC=C5)N)O [CAP-232] + CC1(C)CCC(c2ccc(Cl)cc2)=C(CN2CCN(c3ccc(C(=O)NS(=O)(=O)c4ccc(N[C@H](CCN5CCOCC5)CSc5ccccc5)c(S(=O)(=O)C(F)(F)F)c4)cc3)CC2)C1 [Navitoclax] (partner 0.5 µM)
Method in brief: (§1)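 Values are medians from duplicate plates. Each reflects relative viability, defined as the nuclei count of treated wells over that of vehicle wells. Lung cancer cell lines in 1536-well plates were pin-tool dosed one day after seeding with one drug alone or with a fixed anchor-drug dose plus five library-drug doses (not always all listed) in √10 steps, then fixed, stained and imaged at 4× after 5 days.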

CAP-232 + Linsitinib = compound: C[C@H]([C@@H](C(=O)N)NC(=O)[C@@H]1CSSC[C@@H](C(=O)N[C@H](C(=O)N[C@@H](C(=O)N[C@H](C(=O)N1)CCCCN)CC2=CNC3=CC=CC=C32)CC4=CC=C(C=C4)O)NC(=O)[C@@H](CC5=CC=CC=C5)N)O [CAP-232] + C[C@]1(O)C[C@@H](c2nc(-c3ccc4ccc(-c5ccccc5)nc4c3)c3c(N)nccn32)C1 [Linsitinib] (partner 1 µM)
Method in brief: as §1

CAP-232 + Bortezomib = compound: C[C@H]([C@@H](C(=O)N)NC(=O)[C@@H]1CSSC[C@@H](C(=O)N[C@H](C(=O)N[C@@H](C(=O)N[C@H](C(=O)N1)CCCCN)CC2=CNC3=CC=CC=C32)CC4=CC=C(C=C4)O)NC(=O)[C@@H](CC5=CC=CC=C5)N)O [CAP-232] + CC(C)C[C@H](NC(=O)[C@H](Cc1ccccc1)NC(=O)c1cnccn1)B(O)O [Bortezomib] (partner 0.002 µM)
Method in brief: as §1

CAP-232 + Crizotinib = compound: C[C@H]([C@@H](C(=O)N)NC(=O)[C@@H]1CSSC[C@@H](C(=O)N[C@H](C(=O)N[C@@H](C(=O)N[C@H](C(=O)N1)CCCCN)CC2=CNC3=CC=CC=C32)CC4=CC=C(C=C4)O)NC(=O)[C@@H](CC5=CC=CC=C5)N)O [CAP-232] + C[C@@H](Oc1cc(-c2cnn(C3CCNCC3)c2)cnc1N)c1c(Cl)ccc(F)c1Cl [Crizotinib] (partner 1 µM)
Method in brief: as §1

CAP-232 + Pictilisib = compound: C[C@H]([C@@H](C(=O)N)NC(=O)[C@@H]1CSSC[C@@H](C(=O)N[C@H](C(=O)N[C@@H](C(=O)N[C@H](C(=O)N1)CCCCN)CC2=CNC3=CC=CC=C32)CC4=CC=C(C=C4)O)NC(=O)[C@@H](CC5=CC=CC=C5)N)O [CAP-232] + CS(=O)(=O)N1CCN(Cc2cc3nc(-c4cccc5[nH]ncc45)nc(N4CCOCC4)c3s2)CC1 [Pictilisib] (partner 1 µM)
Method in brief: as §1

CAP-232 + Lapatinib = compound: C[C@H]([C@@H](C(=O)N)NC(=O)[C@@H]1CSSC[C@@H](C(=O)N[C@H](C(=O)N[C@@H](C(=O)N[C@H](C(=O)N1)CCCCN)CC2=CNC3=CC=CC=C32)CC4=CC=C(C=C4)O)NC(=O)[C@@H](CC5=CC=CC=C5)N)O [CAP-232] + CS(=O)(=O)CCNCc1ccc(-c2ccc3ncnc(Nc4ccc(OCc5cccc(F)c5)c(Cl)c4)c3c2)o1 [Lapatinib] (partner 2 µM)
Method in brief: as §1

CAP-232 + Foretinib = compound: C[C@H]([C@@H](C(=O)N)NC(=O)[C@@H]1CSSC[C@@H](C(=O)N[C@H](C(=O)N[C@@H](C(=O)N[C@H](C(=O)N1)CCCCN)CC2=CNC3=CC=CC=C32)CC4=CC=C(C=C4)O)NC(=O)[C@@H](CC5=CC=CC=C5)N)O [CAP-232] + COc1cc2c(Oc3ccc(NC(=O)C4(C(=O)Nc5ccc(F)cc5)CC4)cc3F)ccnc2cc1OCCCN1CCOCC1 [Foretinib] (partner 0.25 µM)
Method in brief: as §1

CAP-232 + Olaparib = compound: C[C@H]([C@@H](C(=O)N)NC(=O)[C@@H]1CSSC[C@@H](C(=O)N[C@H](C(=O)N[C@@H](C(=O)N[C@H](C(=O)N1)CCCCN)CC2=CNC3=CC=CC=C32)CC4=CC=C(C=C4)O)NC(=O)[C@@H](CC5=CC=CC=C5)N)O [CAP-232] + O=C(c1cc(Cc2n[nH]c(=O)c3ccccc23)ccc1F)N1CCN(C(=O)C2CC2)CC1 [Olaparib] (partner 8 µM)
Method in brief: as §1

CAP-232 + Alpelisib = compound: C[C@H]([C@@H](C(=O)N)NC(=O)[C@@H]1CSSC[C@@H](C(=O)N[C@H](C(=O)N[C@@H](C(=O)N[C@H](C(=O)N1)CCCCN)CC2=CNC3=CC=CC=C32)CC4=CC=C(C=C4)O)NC(=O)[C@@H](CC5=CC=CC=C5)N)O [CAP-232] + Cc1nc(NC(=O)N2CCC[C@H]2C(N)=O)sc1-c1ccnc(C(C)(C)C(F)(F)F)c1 [Alpelisib] (partner 2 µM)
Method in brief: as §1

CAP-232 + Dasatinib = compound: C[C@H]([C@@H](C(=O)N)NC(=O)[C@@H]1CSSC[C@@H](C(=O)N[C@H](C(=O)N[C@@H](C(=O)N[C@H](C(=O)N1)CCCCN)CC2=CNC3=CC=CC=C32)CC4=CC=C(C=C4)O)NC(=O)[C@@H](CC5=CC=CC=C5)N)O [CAP-232] + Cc1nc(Nc2ncc(C(=O)Nc3c(C)cccc3Cl)s2)cc(N2CCN(CCO)CC2)n1 [Dasatinib] (partner 0.075 µM)
Method in brief: as §1

CAP-232 + OSI-027 = compound: C[C@H]([C@@H](C(=O)N)NC(=O)[C@@H]1CSSC[C@@H](C(=O)N[C@H](C(=O)N[C@@H](C(=O)N[C@H](C(=O)N1)CCCCN)CC2=CNC3=CC=CC=C32)CC4=CC=C(C=C4)O)NC(=O)[C@@H](CC5=CC=CC=C5)N)O [CAP-232] + COc1cccc2cc(-c3nc([C@H]4CC[C@H](C(=O)O)CC4)n4ncnc(N)c34)[nH]c12 [OSI-027] (partner 0.5 µM)
Method in brief: as §1

CAP-232 + Phenformin = compound: C[C@H]([C@@H](C(=O)N)NC(=O)[C@@H]1CSSC[C@@H](C(=O)N[C@H](C(=O)N[C@@H](C(=O)N[C@H](C(=O)N1)CCCCN)CC2=CNC3=CC=CC=C32)CC4=CC=C(C=C4)O)NC(=O)[C@@H](CC5=CC=CC=C5)N)O [CAP-232] + N=C(N)NC(=N)NCCc1ccccc1 [Phenformin] (partner 250 µM)
Method in brief: as §1

CAP-232 + Tozasertib = compound: C[C@H]([C@@H](C(=O)N)NC(=O)[C@@H]1CSSC[C@@H](C(=O)N[C@H](C(=O)N[C@@H](C(=O)N[C@H](C(=O)N1)CCCCN)CC2=CNC3=CC=CC=C32)CC4=CC=C(C=C4)O)NC(=O)[C@@H](CC5=CC=CC=C5)N)O [CAP-232] + Cc1cc(Nc2cc(N3CCN(C)CC3)nc(Sc3ccc(NC(=O)C4CC4)cc3)n2)n[nH]1 [Tozasertib] (partner 0.1 µM)
Method in brief: as §1

CAP-232 + Luminespib = compound: C[C@H]([C@@H](C(=O)N)NC(=O)[C@@H]1CSSC[C@@H](C(=O)N[C@H](C(=O)N[C@@H](C(=O)N[C@H](C(=O)N1)CCCCN)CC2=CNC3=CC=CC=C32)CC4=CC=C(C=C4)O)NC(=O)[C@@H](CC5=CC=CC=C5)N)O [CAP-232] + CCNC(=O)c1noc(-c2cc(C(C)C)c(O)cc2O)c1-c1ccc(CN2CCOCC2)cc1 [Luminespib] (partner 0.01 µM)
Method in brief: as §1

NCI-H1299
relative viability (CAP-232; 0.4 µM): 1.03 | relative viability (CAP-232; 1.265 µM): 1.01 | relative viability (CAP-232; 4 µM): 1.04 | relative viability (CAP-232; 12.65 µM): 1.02 | relative viability (CAP-232 + Navitoclax; first compound 0.4 µM): 1.04 | relative viability (CAP-232 + Navitoclax; first compound 1.265 µM): 0.991 | relative viability (CAP-232 + Navitoclax; first compound 4 µM): 1.1 | relative viability (CAP-232 + Navitoclax; first compound 12.65 µM): 1.1 | relative viability (CAP-232 + Linsitinib; first compound 0.4 µM): 1.15 | relative viability (CAP-232 + Linsitinib; first compound 1.265 µM): 0.92 | relative viability (CAP-232 + Linsitinib; first compound 4 µM): 1.06 | relative viability (CAP-232 + Linsitinib; first compound 12.65 µM): 1.09 | relative viability (CAP-232 + Bortezomib; first compound 0.4 µM): 1.02 | relative viability (CAP-232 + Bortezomib; first compound 1.265 µM): 1.02 | relative viability (CAP-232 + Bortezomib; first compound 4 µM): 1.06 | relative viability (CAP-232 + Bortezomib; first compound 12.65 µM): 1.01 | relative viability (CAP-232 + Crizotinib; first compound 0.4 µM): 0.955 | relative viability (CAP-232 + Crizotinib; first compound 1.265 µM): 0.952 | relative viability (CAP-232 + Crizotinib; first compound 4 µM): 0.941 | relative viability (CAP-232 + Crizotinib; first compound 12.65 µM): 1.02 | relative viability (CAP-232 + Pictilisib; first compound 0.4 µM): 0.747 | relative viability (CAP-232 + Pictilisib; first compound 1.265 µM): 0.746 | relative viability (CAP-232 + Pictilisib; first compound 4 µM): 0.626 | relative viability (CAP-232 + Pictilisib; first compound 12.65 µM): 0.589 | relative viability (CAP-232 + Lapatinib; first compound 0.4 µM): 1.03 | relative viability (CAP-232 + Lapatinib; first compound 1.265 µM): 0.963 | relative viability (CAP-232 + Lapatinib; first compound 4 µM): 0.908 | relative viability (CAP-232 + Lapatinib; first compound 12.65 µM): 0.96 | relative viability (CAP-232 + Foretinib; first compound 0.4 µM): 1.09 | relative viability (CAP-232 + Foretinib; first compound 1.265 µM): 1.06 | relative viability (CAP-232 + Foretinib; first compound 4 µM): 1.08 | relative viability (CAP-232 + Foretinib; first compound 12.65 µM): 1.05 | relative viability (CAP-232 + Olaparib; first compound 0.4 µM): 0.942 | relative viability (CAP-232 + Olaparib; first compound 1.265 µM): 1.01 | relative viability (CAP-232 + Olaparib; first compound 4 µM): 0.977 | relative viability (CAP-232 + Olaparib; first compound 12.65 µM): 0.934 | relative viability (CAP-232 + Alpelisib; first compound 0.4 µM): 1.04 | relative viability (CAP-232 + Alpelisib; first compound 1.265 µM): 1.05 | relative viability (CAP-232 + Alpelisib; first compound 4 µM): 1.03 | relative viability (CAP-232 + Alpelisib; first compound 12.65 µM): 1.08

NCI-H1623
relative viability (CAP-232; 0.4 µM): 1.06 | relative viability (CAP-232; 1.265 µM): 1.02 | relative viability (CAP-232; 4 µM): 0.92 | relative viability (CAP-232; 12.65 µM): 1.01 | relative viability (CAP-232 + Dasatinib; first compound 0.4 µM): 0.612 | relative viability (CAP-232 + Dasatinib; first compound 1.265 µM): 0.47 | relative viability (CAP-232 + Dasatinib; first compound 4 µM): 0.521 | relative viability (CAP-232 + Dasatinib; first compound 12.65 µM): 0.742 | relative viability (CAP-232 + OSI-027; first compound 0.4 µM): 0.412 | relative viability (CAP-232 + OSI-027; first compound 1.265 µM): 0.495 | relative viability (CAP-232 + OSI-027; first compound 4 µM): 0.488 | relative viability (CAP-232 + OSI-027; first compound 12.65 µM): 0.38 | relative viability (CAP-232 + Phenformin; first compound 0.4 µM): 0.589 | relative viability (CAP-232 + Phenformin; first compound 1.265 µM): 0.579 | relative viability (CAP-232 + Phenformin; first compound 4 µM): 0.603 | relative viability (CAP-232 + Phenformin; first compound 12.65 µM): 0.566 | relative viability (CAP-232 + Foretinib; first compound 0.4 µM): 0.945 | relative viability (CAP-232 + Foretinib; first compound 1.265 µM): 0.802 | relative viability (CAP-232 + Foretinib; first compound 4 µM): 0.849 | relative viability (CAP-232 + Foretinib; first compound 12.65 µM): 0.769 | relative viability (CAP-232 + Tozasertib; first compound 0.4 µM): 0.713 | relative viability (CAP-232 + Tozasertib; first compound 1.265 µM): 0.411 | relative viability (CAP-232 + Tozasertib; first compound 4 µM): 0.465 | relative viability (CAP-232 + Tozasertib; first compound 12.65 µM): 0.632 | relative viability (CAP-232 + Luminespib; first compound 0.4 µM): 0.503 | relative viability (CAP-232 + Luminespib; first compound 1.265 µM): 0.467 | relative viability (CAP-232 + Luminespib; first compound 4 µM): 0.557 | relative viability (CAP-232 + Luminespib; first compound 12.65 µM): 0.359
